# pIC50: −log10 of the molar value. Where a name gives a salt, the structure may show the parent alone.
# Key:
# [1] = test system: human epidermal keratinocytes; test: ATP secretion from human epidermal keratinocytes promoted by ionomycin; assay type: cell-based
# Experimental: Human epidermal keratinocytes (Cryopreserved HEK, Lot 1758, Cell Applications Inc.) were cultured using an Epivita Keratinocyte Growth Medium Kit according to the manufacturer's instructions. The procedure was as follows. A supplement medium was added to a hydrocortisone-containing basal medium included in the medium preparation kit to prepare a complete medium. The medium in the dish was removed by aspiration. The cells were washed with 5 ml of BSS (Gbco), and then the BSS was removed by aspiration. After addition of 5 to 6 ml of trypsin/EDTA solution (Gbco), the dish was incubated at 37° C. for 2 minutes. After addition of 5 ml of trypsin neutralization solution, the resulting cell suspension was transferred into two 15-ml Falcon tubes, and centrifuged at 200×g for 5 minutes. The supernatant was removed by aspiration, and the pelleted cell cluster was suspended in 2 ml of the medium at 4.5×10^5 cells/ml. An aliquot of the resulting cell suspension was cryopreserved, while another aliquot was cultured and subjected to measurement.
# ATP secretion by human epidermal keratinocytes (hereinafter referred to as “keratinocytes”) was measured. Regarding control solutions, Krebs-Ringer HEPES supplemented with 0.2% BSA and 25 mM glucose (hereinafter also referred to as “Krebs/Iono(−)”) was used as a negative control, and a solution prepared by adding 5 μM ionomycin to this solution (hereinafter also referred to as “Krebs/Iono(+)”) was used as a positive control for ATP secretion. Ionomycin is a Ca^2+ ionophore. Addition of ionomycin to cells is known to promote influx of extracellular Ca^2+ into the cells to increase the intracellular Ca^2+ concentration, resulting in enhancement of ATP secretion. Test solutions were prepared by adding clodronate to Krebs/Iono(−) or Krebs/Iono(+) to a final concentration of 0.1 μM (hereinafter also referred to as “Clo/Iono(−)” or “Clo/Iono(+)”, respectively) (N=3).
# Keratinocytes were cultured at 2.5×10^4 cells/well in a 24-well plate at 37° C. in 5% CO2 for 4 days. The medium was removed by aspiration, replaced with Krebs/Iono(−) or Clo/Iono(−), and incubated at 37° C. for 6 hours. These solutions were then removed by aspiration, and the content of each well incubated with Krebs/Iono(−) was replaced with 300 μl of a control solution (Krebs/Iono(−) or Krebs/Iono(+)), while the content of each well incubated with Clo/Iono(−) was replaced with 300 μl of a test solution (Clo/Iono(−) or Clo/Iono(+)). After further incubation at 37° C. for 20 minutes, 200 μl of the supernatant was collected. The collected supernatant was immediately treated on a heat block at 95° C. for 10 minutes, to inactivate ectonucleotidase. ATP in the supernatant was quantified using a Dojindo ATP assay kit−Luminescence (manufactured by Dojindo Laboratories).
# Keratinocytes were cultured in the same manner as in Example 1, and ATP secretion from the keratinocytes was measured. Krebs/Iono(−), or a solution prepared by adding 10 μM imeglimin, 0.1 μM eicosapentaenoic acid (EPA), 1 μM EPA, or 10 μM clodronate to Krebs/Iono(−) was used (N=4).
# After culturing keratinocytes, the medium was removed by aspiration, and replaced with Krebs/Iono(−), or Krebs/Iono(−) supplemented with 10 μM imeglimin, 0.1 μM EPA, 1 μM EPA, or 10 μM clodronate, followed by incubation for 6 hours. Subsequently, the solution was replaced with either a control solution (Krebs/Iono(−) or Krebs/Iono(+)) or a test solution (Krebs/Iono(+) supplemented with 10 μM imeglimin, 0.1 μM EPA, 1 μM EPA, or 10 μM clodronate), followed by incubation at 37° C. for 20 minutes and then collection of 200 μl of the supernatant. The collected supernatant was immediately treated on a heat block at 95° C. for 10 minutes to inactivate ectonucleotidase. ATP in the supernatant was quantified using a Dojindo ATP assay kit—Luminescence (manufactured by Dojindo Laboratories). […]
# [2] = test system: human epidermal keratinocytes; test: ATP secretion from keratinocytes upon LPS stimulation; assay type: cell-based; conditions: 10 μM, 18 hours, 10 μg/ml LPS, N=8 (FIG. 8)
# Experimental: Keratinocytes were cultured in the same manner as in Example 1. Keratinocytes were cultured at 2.5×10^4 cells/well in a 24-well plate at 37° C. in 5% CO2 for 4 days. The medium was replaced with a test solution (Hanks' balanced salt solution (HBSS) (manufactured by Gibco) supplemented with imeglimin, metformin, or clodronate), and then incubation was performed at 37° C. in 5% CO2 for 18 hours. Thereafter, LPS (10 μg/ml) was added thereto, and incubation was further carried out for 10 minutes, followed by collection of 200 μl of the supernatant. The supernatant was immediately treated on a heat block at 95° C. for 10 minutes, and ATP in the supernatant was quantified using an ATP Assay Kit−Luminescence (manufactured by Dojindo) (N=8).
# VNUT = test: Inhibitory effect on VNUT (data not shown)
# V-ATPase [3] = test: Inhibitory effect on V-ATPase (data not shown)
# [4] = test system: chromaffin granule membrane; test: ATP transport (uptake of radiolabeled ATP) in chromaffin granule membrane vesicles; assay type: biochemical, cattle; conditions: role: inhibitor, MANT-ATP
# Experimental: (§1) Chromaffin granule membranes were prepared from adrenal glands collected from slaughtered cattle according to Reference A (Nathan Nelson et al., 1988, Chromaffin Granule Proton Pump, Methods in Enzymology, 157, 619-633). Chromaffin granule membranes prepared by sucrose density gradient centrifugation were suspended in 2 ml of SME buffer (20 mM MOPS-tris (pH 7.0), 0.3 M sucrose, 5 mM EDTA, 10 μg/ml leupeptin, and 10 μg/ml pepstatin)+25% glycerol, and the resulting suspension was aliquoted and stored at −80° C. Under these conditions, the ATP transport activity, the V-ATPase activity, and the catecholamine transport activity remain fully active for at least one year.
# An ATP transport inhibition experiment for the chromaffin granule membrane was carried out according to Reference B (Yoshinori Moriyama et al., 2022, Is the vesicular nucleotide transporter a molecular target of eicosapentaenoic acid?, Frontiers in Pharmacology, 103389). About 20 μg of chromaffin granule membranes were added to 0.5 ml of measurement buffer (20 mM MOPS-tris (pH 7.0), 0.3 M sucrose, 5 mM potassium chloride, 5 mM magnesium acetate, 5 mM creatine phosphate, 10 units of creatine kinase, and 1 mM 3[H]-ATP [15 KBq/assay]), followed by incubation at 30° C. for 1 hour. Through a Millipore MCE membrane filter with a pore size […], 0.2 ml of the reaction liquid was filtered by suction. Thereafter, the filter was washed with 10 ml of 20 mM MOPS-tris (pH 7.0), 0.3 M sucrose, 5 mM potassium chloride, and 5 mM magnesium acetate, and dissolved in 10 ml of Clear-sol II (manufactured by Nacalai Tesque, Inc.). The radioactivity was then measured using a liquid scintillation counter (N=3).
# The reaction was initiated by adding 50 mM ^3[H]-ATP to a final concentration of 1 mM. The 50 mM ^3[H]-ATP was prepared by mixing an ATP-tris solution (manufactured by Sigma-Aldrich) with [2,8-^3H]adenosine triphosphate tetrasodium salt (26.0 Ci/mmol) (manufactured by New England Nuclear). PEP was used as a test reagent, and pyruvic acid was used as a negative control. Five minutes before the addition of ATP, PEP or pyruvic acid, as a solution in 20 mM MOPS-tris (pH 7.0), 0.3 M sucrose, 5 mM potassium chloride, and 5 mM magnesium acetate, was added to the measurement liquid to a final PEP concentration of 0.02, 0.05, 0.1, 0.2, 0.4, or 1 mM, or to a final pyruvic acid concentration of 0.5 or 1 mM.
# (§2) Chromaffin granule membrane vesicles were prepared in the same manner as in Example 5, and uptake of radiolabeled ATP into the vesicles was measured. Transport activity of catecholamine (dopamine) and ATP-dependent proton transport by V-ATPase were also measured in the same manner as in Example 5.
# [5] = test system: catecholamine transport of chromaffin granule membranes; test: Catecholamine (dopamine) transport in chromaffin granule membranes; assay type: biochemical, cattle; conditions: role: inhibitor; MANT-ATP, N=3 (FIG. 11)
# Experimental: as §1
# A catecholamine transport inhibition experiment was carried out in the same manner as the ATP transport experiment except that the experiment used a measurement liquid containing 20 mM MOPS-tris (pH 7.0), 0.1 M sucrose, 0.1 M potassium chloride, 5 mM magnesium acetate, and about 5 μg of chromaffin granule membranes. To 0.5 ml of the measurement liquid, 2 mM ATP was added, and the resulting mixture was incubated at 30° C. for about 5 minutes, followed by addition of 3[H]-dopamine thereto to a final concentration of 10 μM. After further incubation at 30° C. for 15 minutes, 0.2 ml of the reaction liquid was subjected to suction filtration through a Millipore MCE membrane filter with a pore size of 0.45 μm, and the radioactivity on the filter was measured (N=3). The substrate, 3[H]-dopamine, was prepared by mixing 3,4-[RING-2,5,6-^3H]dihydroxyphenylethylamine (dopamine) (30 Ci/mmol) (manufactured by New England Nuclear) with dopamine hydrochloride (manufactured by LKT Laboratories) such that a final concentration of […] was achieved during the use.
# as §2
# V-ATPase [6] = target: T1, V-ATPase (Bos taurus, UniProt P31404+P31408); test: ATP-dependent proton transport by V-ATPase (acridine orange fluorescence quenching); assay type: biochemical, cattle
# T1 construct: Chromaffin granule membranes were prepared from adrenal glands collected from slaughtered cattle; from tissue; host or cells: cattle adrenal glands, chromaffin granule membranes (sucrose density gradient)
# Experimental: as §1
# ATP-dependent proton transport by V-ATPase was measured according to Reference B. Proton transport activity was measured using a spectrofluorometer at excitation wavelength of 492 nm and a fluorescence wavelength 540 nm, wherein fluorescence quenching of acridine orange was used as an index (N=2). The transmembrane potential generated was measured using a spectrofluorometer at an excitation wavelength of 580 nm and a fluorescence wavelength of 630 nm, wherein fluorescence quenching of oxonol-V was used as an index (N=2). The acridine measurement liquid (2 ml) contained 20 mM MOPS-tris (pH 7.0), 0.2 M sucrose, 0.1 M potassium chloride, 5 mM magnesium acetate, 0.2 μg valinomycin, 2 μM acridine orange, and about 20 μg of chromaffin granules. The oxonol-V measurement liquid (2 ml) contained 20 mM MOPS-tris (pH 7.0), 0.3 M sucrose, 5 mM magnesium acetate, 5 μM oxonol-V, and about 20 μg of chromaffin granules.
# as §2
# [7] = test system: ATP-loaded vesicles of keratinocytes; test: Accumulation of MANT-ATP in granules of keratinocytes (confocal microscopy); assay type: cell-based, human; conditions: 0.3 mM MANT-ATP, control without imeglimin (FIG. 13)
# Experimental: Keratinocytes were cultured in the same manner as in Example 8. Keratinocytes were cultured at 4×10^4 cells/ml in a glass-bottom dish (35 mm, manufactured by Matsunami Glass Ind., Ltd.) at 37° C. in 5% CO2 for 2 days. The culture medium was then replaced with a medium supplemented with MANT-ATP (manufactured by Invitrogen) at a final concentration of 0.3 mM, and further incubation was performed for 4.5 hours. Subsequently, imeglimin was added thereto to a final concentration of 10 μM, and further incubation was performed at 37° C. in 5% CO2 for 19 hours. Thereafter, the cells were washed twice with HBSS (manufactured by Gibco) and observed using an inverted confocal laser microscope (FV-1000 OSR, manufactured by Olympus Corporation).
# T1 sequence (P31404 whole entry, looked up): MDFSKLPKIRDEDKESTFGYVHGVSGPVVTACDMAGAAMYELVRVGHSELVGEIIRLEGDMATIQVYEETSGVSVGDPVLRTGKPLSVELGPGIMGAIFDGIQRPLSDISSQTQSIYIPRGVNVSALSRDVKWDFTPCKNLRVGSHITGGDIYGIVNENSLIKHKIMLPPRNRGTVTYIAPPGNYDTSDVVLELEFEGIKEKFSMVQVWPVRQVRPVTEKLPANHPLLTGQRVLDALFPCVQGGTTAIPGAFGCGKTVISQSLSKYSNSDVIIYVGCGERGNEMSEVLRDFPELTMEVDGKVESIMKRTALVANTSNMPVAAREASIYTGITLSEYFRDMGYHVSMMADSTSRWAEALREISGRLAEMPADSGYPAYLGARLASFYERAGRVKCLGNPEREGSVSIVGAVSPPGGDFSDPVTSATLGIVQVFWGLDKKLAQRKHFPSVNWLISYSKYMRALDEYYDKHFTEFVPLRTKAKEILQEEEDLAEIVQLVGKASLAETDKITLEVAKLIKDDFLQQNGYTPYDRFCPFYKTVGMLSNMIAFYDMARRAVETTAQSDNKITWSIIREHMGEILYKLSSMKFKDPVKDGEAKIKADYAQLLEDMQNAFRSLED
# T1 sequence (P31408 whole entry, looked up): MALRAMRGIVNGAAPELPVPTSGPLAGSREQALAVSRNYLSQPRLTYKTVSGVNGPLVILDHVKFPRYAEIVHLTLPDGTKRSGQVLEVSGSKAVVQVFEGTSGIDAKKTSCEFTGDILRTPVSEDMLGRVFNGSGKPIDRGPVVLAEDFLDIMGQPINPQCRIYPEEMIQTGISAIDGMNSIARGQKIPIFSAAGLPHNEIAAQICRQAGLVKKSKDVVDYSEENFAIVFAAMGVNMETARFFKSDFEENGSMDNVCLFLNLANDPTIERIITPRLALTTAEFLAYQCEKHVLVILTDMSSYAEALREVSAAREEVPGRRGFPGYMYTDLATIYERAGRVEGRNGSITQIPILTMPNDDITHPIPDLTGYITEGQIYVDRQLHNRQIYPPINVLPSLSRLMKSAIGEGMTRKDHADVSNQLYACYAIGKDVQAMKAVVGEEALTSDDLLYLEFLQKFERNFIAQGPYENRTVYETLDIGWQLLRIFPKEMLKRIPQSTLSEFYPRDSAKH
Compound,"ATP secretion inhibitory effect at low concentration ([1]; 0.1 μM, 6 h preincubation, ionomycin)",ATP secretion inhibitory effect at higher concentrations ([1]; up to 10 μM metformin),LPS-stimulated ATP secretion [2],inhibitory effect on VNUT (VNUT),inhibitory effect on V-ATPase (V-ATPase [3]),mode of inhibition of ATP transport by VNUT [4],"ATP transport ([4]; radiolabeled ATP, N=3 (FIG. 10))","pIC50 ([4]; radiolabeled ATP, N=3 (FIG. 10), read-out: ID50 of ATP transport)",effect on catecholamine transport system [5],"effect on ATP-dependent proton transport by V-ATPase (V-ATPase [6]; role: inhibitor, MANT-ATP up to 100 μM, N=1 (FIG. 12))","quenching of acridine orange fluorescence (V-ATPase [6]; role: substrate, 0.1 mM MANT-ATP) [%]","total acridine orange fluorescence quenching (V-ATPase [6]; role: substrate, 0.1 mM MANT-ATP followed by addition of ATP) [%]",accumulation in the granules in keratinocytes [7]
CN(C)C(=N)NC(=N)N [metformin],exhibit an ATP secretion inhibitory effect,decreased inhibitory effect at higher concentrations,almost completely inhibited,neither imeglimin nor metformin exhibited a strong inhibitory effect,neither imeglimin nor metformin exhibited a strong inhibitory effect,–,–,–,–,–,–,–,–
"CNc1ccccc1C(=O)O[C@H]1[C@@H](O)[C@H](n2cnc3c(N)ncnc32)O[C@@H]1COP(=O)(O)OP(=O)(O)OP(=O)(O)O [MANT-ATP, 2′/3′-O—(N-methyl-anthraniloyl)-adenosine-5′-triphosphate triethylammonium salt]",–,–,–,–,–,competitively inhibits,strongly inhibited ATP transport,~1.52,hardly affected,did not affect,34,61.8,accumulation of MANT-ATP in the granules

# — patent publication US20260306500A1, “METHOD OF INHIBITING ADENOSINE TRIPHOSPHATE SECRETION, METHOD OF INHIBITING HEPATIC STELLATE CELL ACTIVATION, METHOD OF DEACTIVATING HEPATIC STELLATE CELL, METHOD OF TREATING HEPATIC FIBROSIS, METHOD OF TREATING NON-ALCOHOLIC STEATOHEPATITIS, AND METHOD OF TREATING PSORIASIS” (Kurume University, priority 2023, published 2026)
